By IC50 is commonly meant the concentration at which inhibition is half-maximal. Low values mean greater potency, high ones weaker potency.

A value given as a limit tells only on which side of the number the result lay.

Assay [1] concerns the target T1, mouse 11β-HSD1 (Mus musculus, UniProt P50172).
T1 construct: 100 ug/ml human/mouse liver microsomes; from tissue; host or cells: mouse liver microsomes
Put plainly: Enzyme activity analysis on mouse 11β-HSD1 (HTRF cortisol, liver microsomes). It counts as biochemical. Particulars: second value of cell. On the procedure:
(§1) After culturing at 37° C. for 2 hours, 5 μl of cryptate-labeled anti-cortisol antibody and 5 μl of d2-labeled cortisol were added thereto. After further culturing at room temperature for 2 hours, a homogeneous time-resolved fluorescence (HTRF, Cisbio) signal was measured. From each analysis, based on a standard curve calculated using cortisols of several known concentrations, an amount of produced cortisol was tested.
(§2) While an amount of cortisol, produced without the compound, was used as a control, an inhibition percentage by the test compound, at each concentration, was calculated. By using an inhibition curve calculated by coordinates of inhibition percentage to test compound concentration, an IC50 value of the compound on 11β-HSD1 was obtained.
A general note: Time-resolved FRET reads energy transfer from a long-lived donor to a nearby acceptor.

The target of assay [2] is T2, human 11β-HSD1 (Homo sapiens, UniProt P28845).
T2 construct: 100 ug/ml human/mouse liver microsomes; from tissue; host or cells: human liver microsomes
T2 sequence (P28845 whole entry): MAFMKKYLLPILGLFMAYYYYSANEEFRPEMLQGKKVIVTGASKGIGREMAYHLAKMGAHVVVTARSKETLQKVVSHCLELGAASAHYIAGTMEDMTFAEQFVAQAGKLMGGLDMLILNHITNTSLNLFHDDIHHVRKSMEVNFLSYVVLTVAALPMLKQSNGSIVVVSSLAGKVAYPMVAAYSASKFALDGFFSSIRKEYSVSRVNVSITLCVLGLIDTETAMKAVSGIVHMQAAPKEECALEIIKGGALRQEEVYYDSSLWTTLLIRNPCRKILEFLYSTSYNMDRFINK
Put plainly: Enzyme activity analysis on human 11β-HSD1 (HTRF cortisol, liver microsomes). It counts as biochemical. Particulars: first value of cell. Here is the method:
as §1, §2

T1 sequence (P50172 whole entry): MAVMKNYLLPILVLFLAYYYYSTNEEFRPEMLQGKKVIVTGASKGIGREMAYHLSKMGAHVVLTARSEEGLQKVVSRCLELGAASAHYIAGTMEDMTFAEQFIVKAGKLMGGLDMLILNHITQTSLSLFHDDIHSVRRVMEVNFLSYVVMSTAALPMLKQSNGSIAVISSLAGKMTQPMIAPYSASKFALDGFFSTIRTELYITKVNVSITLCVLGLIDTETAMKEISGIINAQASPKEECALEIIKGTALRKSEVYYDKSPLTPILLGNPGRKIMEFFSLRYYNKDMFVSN

For the compound `CN(C(C)(C)C(=O)NC1C2CC3CC1CC(C(N)=O)(C3)C2)S(=O)(=O)c1ccccc1[N+](=O)[O-]` (stereo not shown) [compound 197, N-4-(2-(2-nitro-N-methylphenylsulfonamido)-2-methylpropanamido)adamantane-1-carboxyamide], the values for the concentration for half-maximal inhibition (IC50) in assay [1] and in assay [2] were 0.008 µM and 0.004 µM, respectively.

For the compound `CC(C)NC(=O)C12CC3CC(C1)C(NC(=O)C1(NS(=O)(=O)c4ccccc4Cl)CCC1)C(C3)C2` (stereo not shown) [compound 236, 4-({1-[(2-chloro-benzenesulfonyl)-methyl-amino]-cyclobutanecarbonyl}-amino)-adamantane-1-carboxylic acid-isopropylamide], the IC50 in assay [1] and in assay [2] was over 2.5 µM throughout.

With `CN(C(C)(C)C(=O)NC1C2CC3CC1CC(O)(C3)C2)S(=O)(=O)c1ccccc1C(F)(F)F` (stereo not shown) [compound 208, N-(5-hydroxyadamantane-2-yl)-2-(2-trifluoromethyl-N-methylphenylsulfonamido)-2-methylpropanamide], the IC50 in assay [1] came out at 0.092 µM; in assay [2], 0.006 µM.

Take `CN(C(C)(C)C(=O)NC1C2CC3CC(C2)CC1C3)S(=O)(=O)c1ccccc1C(F)(F)F` (stereo not shown) [compound 201, N-(adamantane-2-yl)-2-(2-trifluoromethyl-N-methylphenylsulfonamido)-2-methylpropan amide]: the IC50 in assay [1] came out at 0.088 µM; in assay [2], 0.012 µM.

As to `CC(C)(NS(=O)(=O)c1ccc([N+](=O)[O-])cc1)C(=O)NC1C2CC3CC(C2)CC1C3` (stereo not shown) [compound 3, N-(adamantane-2-yl)-2-methyl-2-(4-nitrophenylsulfonamido)propanamide], the IC50 was 1.7 µM in assay [1] and 1.33 µM in assay [2].

In the case of `CC(C)(NS(=O)(=O)Cc1ccccc1)C(=O)NC1C2CC3CC(C2)CC1C3` (stereo not shown) [compound 63, N-(adamantane-2-yl)-2-methyl-2-(phenylmethylsulfonamido)propanamide], the IC50 in assay [1] amounted to 0.283 µM; in assay [2], 0.039 µM.

With `NC(=O)C12CC3CC(C1)C(NC(=O)C1(NS(=O)(=O)c4ccccc4)CCC1)C(C3)C2` (stereo not shown) [compound 148, N-4-(1-(phenylsulfonamido)cyclobutanecarboxyamido)adamantane-1-carboxyamide], the IC50 in assay [1] was found to be 0.056 µM; in assay [2] it was 0.163 µM.

Take `Cc1c(Cl)cccc1S(=O)(=O)NC1(C(=O)NC2C3CC4CC2CC(C(N)=O)(C4)C3)CCC1` (stereo not shown) [compound 149, N-4-(1-(2-methyl-3-chlorophenylsulfonamido)cyclobutanecarboxyamido)adamantane-1-carboxyamide]: the figures for the IC50 in assay [1] and in assay [2] were 0.04 µM and 0.015 µM, respectively.

For `O=C(NC1C2CC3CC(C2)CC1C3)C1(NS(=O)(=O)c2cccc([N+](=O)[O-])c2)CCC1` (stereo not shown) [compound 142, N-(adamantane-2-yl)-1-(3-nitrophenylsulfonamido)cyclobutanecarboxyamide], the half-inhibitory concentration (IC50) in assay [1] is 1.44 µM; in assay [2], over 2.5 µM.

With `CC(C)(NS(=O)(=O)c1cc(Cl)ccc1Cl)C(=O)NC1C2CC3CC(C2)CC1C3` (stereo not shown) [compound 9, N-(adamantane-2-yl)-2-methyl-2-(2,5-dichlorophenylsulfonamido)propanamide], the IC50 is over 2.5 µM in assay [1] and 0.091 µM in assay [2].

In the case of `CN(C(C)(C)C(=O)NC1C2CC3CC1CC(O)(C3)C2)S(=O)(=O)c1cccc(Cl)c1Cl` (stereo not shown) [compound 203, N-(5-hydroxyadamantane-2-yl)-2-(2,3-dichloro-N-methylphenylsulfonamido)-2-methylpropanamide], the figures for the half-inhibitory concentration (IC50) in assay [1] and in assay [2] were 0.039 µM and 0.01 µM, respectively.

Turning to `Cc1ccc(S(=O)(=O)NC(C)(C)C(=O)NC2C3CC4CC(C3)CC2C4)cc1F` (stereo not shown) [compound 27, N-(adamantane-2-yl)-2-methyl-2-(4-methyl-3-fluorophenylsulfonamido)propanamide], the IC50 in assay [1] was found to be 1.12 µM; in assay [2], 0.555 µM.

As to `CC(C)(NS(=O)(=O)c1ccc(Cl)cc1)C(=O)NC1C2CC3CC(C2)CC1C3` (stereo not shown) [compound 5, N-(adamantane-2-yl)-2-methyl-2-(4-chlorophenylsulfonamido)propanamide], the IC50 in assay [1] was determined as 1.05 µM; in assay [2], 0.43 µM.

Turning to `CC(C)(NS(=O)(=O)c1cccc2cccnc12)C(=O)NC1C2CC3CC(C2)CC1C3` (stereo not shown) [compound 17, N-(adamantane-2-yl)-2-methyl-2-(quinoline-8-sulfonamido)propanamide], the half-inhibitory concentration (IC50) in assay [1] and in assay [2] was 0.008 µM throughout.

For the compound `CC(C)(NS(=O)(=O)c1ccccc1C(F)(F)F)C(=O)NC1C2CC3CC1CC(O)(C3)C2` (stereo not shown) [compound 72, N-(5-hydroxyadamantane-2-yl)-2-methyl-2-(2-trifluoromethylphenylsulfonamido)propan amide], the figures for the IC50 in assay [1] and in assay [2] were 0.138 µM and 0.111 µM, respectively.

For the compound `O=C(NC1C2CC3CC(C2)CC1C3)C1(NS(=O)(=O)c2ccccc2C(F)(F)F)CCC1` (stereo not shown) [compound 140, N-(adamantane-2-yl)-1-(2-trifluoromethylphenylsulfonamido)cyclobutanecarboxyamide], the half-maximal inhibitory concentration (IC50) in assay [1] was 1.68 µM; in assay [2], 0.184 µM.

As for `O=C(NCCO)C12CC3CC(C1)C(NC(=O)C1(NS(=O)(=O)c4ccccc4Cl)CCC1)C(C3)C2` (stereo not shown) [compound 232], the IC50 in assay [1] and in assay [2] was over 2.5 µM throughout.

Compound `CN(C(C)(C)C(=O)NC1C2CC3CC1CC(C(N)=O)(C3)C2)S(=O)(=O)c1ccccc1F` (stereo not shown) [compound 195, N-4-(2-(2-fluoro-N-methylphenylsulfonamido)-2-methylpropanamido)adamantane-1-carboxyamide] yielded an IC50 in assay [1] of 0.015 µM.

Turning to `COc1ccc(S(=O)(=O)NC(C)(C)C(=O)NC2C3CC4CC2CC(C(N)=O)(C4)C3)c(OC)c1` (stereo not shown) [compound 129], the IC50 in assay [1] stood at 0.589 µM; in assay [2], 0.096 µM.

For the compound `NC(=O)C12CC3CC(C1)C(NC(=O)C1(NS(=O)(=O)c4cccc5cccnc45)CC1)C(C3)C2` (stereo not shown) [compound 135, N-4-(1-(quinoline-8-sulfonamido)cyclopropanecarboxyamido)adamantane-1-carboxyamide], the IC50 in assay [1] is 0.02 µM; in assay [2] it was 0.042 µM.

Consider `CNC(=O)C12CC3CC(C1)C(NC(=O)C1(NS(=O)(=O)c4ccccc4Cl)CCC1)C(C3)C2` (stereo not shown) [compound 238], for which the IC50 in assay [1] and in assay [2] was over 2.5 µM each time.

As to `NC(=O)C12CC3CC(C1)C(NC(=O)C1(NS(=O)(=O)c4c(Cl)cccc4Cl)CCCC1)C(C3)C2` (stereo not shown) [compound 175, N-4-(1-(2,6-dichlorophenylsulfonamido)cyclopentanecarboxyamido)adamantane-1-carboxyamide], the IC50 came to 0.003 µM in assay [1] and 0.006 µM in assay [2].

In the case of `CC(C)(NS(=O)(=O)c1ccccc1)C(=O)NC1C2CC3CC1CC(O)(C3)C2` (stereo not shown) [compound 70], the IC50 turned out to be 0.378 µM in assay [1] and 0.093 µM in assay [2].

On to `CN(C(C)(C)C(=O)NC1C2CC3CC1CC(C(N)=O)(C3)C2)S(=O)(=O)c1ccccc1Br` (stereo not shown) [compound 189, N-4-(2-(2-bromo-N-methylphenylsulfonamido)-2-methylpropanamido)adamantane-1-carboxyamide], for which the IC50 in assay [1] is over 2.5 µM; in assay [2], 0.018 µM.

On to `CCCc1ccc(S(=O)(=O)NC(C)(C)C(=O)NC2C3CC4CC(C3)CC2C4)cc1` (stereo not shown) [compound 67, N-(adamantane-2-yl)-2-methyl-2-(4-propylphenylsulfonamido)propanamide], for which the IC50 worked out at 1.26 µM in assay [1] and 1.29 µM in assay [2].

With `CC(C)(NS(=O)(=O)c1cc(C(F)(F)F)cc(C(F)(F)F)c1)C(=O)NC1C2CC3CC(C2)CC1C3` (stereo not shown) [compound 49, N-(adamantane-2-yl)-2-methyl-2-(3,5-ditrifluoromethylphenylsulfonamido)propanamide], the IC50 in assay [1] was over 2.5 µM; in assay [2] it was 1.35 µM.

`CC(C)(NS(=O)(=O)c1c(Cl)cc(Cl)cc1Cl)C(=O)NC1C2CC3CC(C2)CC1C3` (stereo not shown) [compound 14, N-(adamantane-2-yl)-2-methyl-2-(2,4,6-trichlorophenylsulfonamido)propanamide]: in assay [2], the IC50 came to 0.17 µM.

On to `CC(C)(NS(=O)(=O)c1cccc(C(F)(F)F)c1)C(=O)NC1C2CC3CC(C2)CC1C3` (stereo not shown) [compound 19, N-(adamantane-2-yl)-2-methyl-2-(3-trifluoromethylphenylsulfonamido)propanamide], for which the IC50 in assay [2] was 0.478 µM.

In turn, `CC(C)(NS(=O)(=O)c1ccc(C(C)(C)C)cc1)C(=O)NC1C2CC3CC(C2)CC1C3` (stereo not shown) [compound 18, N-(adamantane-2-yl)-2-methyl-2-(4-(t-butyl)phenylsulfonamido)propanamide] gave a half-maximal inhibitory concentration (IC50) in assay [2] of 1.14 µM.

In assay [2], `CC(C)(NS(=O)(=O)c1ccc(Cl)c(Cl)c1)C(=O)NC1C2CC3CC(C2)CC1C3` (stereo not shown) [compound 11, N-(adamantane-2-yl)-2-methyl-2-(3,4-dichlorophenylsulfonamido)propanamide] had an IC50 of 0.35 µM.

In turn, `CC(C)(NS(=O)(=O)c1ccc2ccccc2c1)C(=O)NC1C2CC3CC(C2)CC1C3` (stereo not shown) [compound 21, N-(adamantane-2-yl)-2-methyl-2-(naphthalene-2-sulfonamido)propanamide] gave an IC50 in assay [2] of 0.466 µM.

`CC(C)(NS(=O)(=O)c1cccc2ccccc12)C(=O)NC1C2CC3CC(C2)CC1C3` (stereo not shown) [compound 20, N-(adamantane-2-yl)-2-methyl-2-(naphthalene-1-sulfonamido)propanamide]: half-maximal inhibition in assay [2] (IC50) required 0.304 µM.

`COc1ccc(S(=O)(=O)NC(C)(C)C(=O)NC2C3CC4CC(C3)CC2C4)cc1` (stereo not shown) [compound 24, N-(adamantane-2-yl)-2-methyl-2-(4-methoxyphenylsulfonamido)propanamide] returned an IC50 in assay [2] of 0.404 µM.
